Read-outs that look alike come from different tables or passages of the source.
Key:
[1] = Dose-adjusted steady-state trough serum concentrations before and after low-calorie diet and bariatric surgery; format: in vivo, human; conditions: for Reduction of dose-adjusted concentration on the last day of sampling: post-surgery versus pre-surgery, substances with samples from six or more participants; for Course of dose-adjusted concentration after surgery: following the low-calorie diet; for Change in dose-adjusted concentration over the pre-surgery low-calorie diet: after the pre-surgery diet, before surgery, median weight reduction 6 kg
Description: We designed the study as a naturalistic longitudinal, prospective case series with intra-individual comparisons of drug concentrations over time, before and up to 1 year after the surgical procedure.
The participants contributed blood samples to the current study during routine pre-surgery visits before, and post-surgery visits about 8 weeks, 6 months, and 1 year after, the surgery. Pre-surgery sampling generally occurred twice: at an initial preoperative assessment visit, and just before surgery. Between these visits, that is, before surgery, patients were required to adhere to a low-calorie diet and show a weight reduction. The samples were stored as serum in −80 °C at a biobank, and analysed after all samples had been collected.
Before every routine visit at which the sampling was to occur, we contacted the participants by telephone to systematically obtain information on the current dose as well as adherence to the drug treatment in question over the 2 preceding weeks. Samples were excluded from the data set if non-adherence less than four elimination half-lives prior to sampling was reported; exceptions were made for occasional missed doses of fluoxetine. Half-lives applied were those described for a drug or its metabolite in the summary of product characteristics. We also asked for and recorded concomitant drug treatment, weight, and smoking status. To be able to relate potential changes in concentration to health consequences, we asked the participants during the follow-up phone calls, using an open question, if anything had happened to their health since the last visit. To obtain trough blood concentrations, we strived to schedule the routine visits before lunchtime and the participants were instructed not to take morning tablets before the sampling.
Specific substances were analysed concomitantly, using clinical routine methods, at accredited laboratories at the Department of Clinical Chemistry, Sahlgrenska University Hospital, Gothenburg, Sweden, or (as for gabapentin, hydroxybupropion, mianserine, pregabalin, paroxetine and topiramate) at the Department of Clinical Pharmacology, St. Olav’s Hospital, Trondheim, Norway. Analysis methods were based on liquid chromatography/tandem mass spectrometry or (for lamotrigine and valproic acid) enzyme immunoassay.
Statistical analyses were performed using SPSS, version 23.0 (IBM SPSS Statistics for Windows, Armonk, NY, USA). Participants treated with the same substance before and after surgery, with one or more trough sample concentrations available, were included in the analysis. To allow interindividual and intraindividual comparisons, serum concentrations were adjusted for defined daily dose (DDD). For example, since DDD for citalopram is 20 mg, a DDD-adjusted citalopram concentration of 100 nmol/L could represent a measured concentration of 50, 100, or 200 nmol/L, given a daily dose of 10, 20, or 40 mg, respectively. To compare pre- to post-surgery concentrations, as well as pre- to post-diet concentrations, we used Wilcoxon signed rank test for substances with samples available for six or more individuals. We used Spearman’s correlation to explore the relationship between the ratio of the post-/pre-diet concentrations and (i) the distribution coefficient for the drug in question, i.e., the logarithm of the ratio of its concentration in a lipophilic and a hydrophilic solution (logD), as well as (ii) the weight loss in kilograms for pregabalin.

[2] = octanol/water, pH 7.4; source not stated; cited from earlier work
[3] = Table 2A, trough serum, adjusted for dose in DDDs
[4] = Table 2A, trough serum, adjusted for dose in DDDs, last observation carried forward, median 379 days after surgery
[5] = Table 2B, trough serum, adjusted for dose in DDDs, after pre-surgery low-calorie diet
[6] = Table 2B, trough serum, adjusted for dose in DDDs, before low-calorie diet
[7] = Table 2A, antiepileptics, trough serum, adjusted for dose in DDDs
[8] = Table 2A, antiepileptics, trough serum, adjusted for dose in DDDs, last observation carried forward, median 379 days after surgery
[9] = Table 2B, antiepileptics, trough serum, adjusted for dose in DDDs, after pre-surgery low-calorie diet
[10] = Table 2B, antiepileptics, trough serum, adjusted for dose in DDDs, before low-calorie diet
[11] = human, in vivo, 379 days after surgery (median), trough

CN(C)CCC=C1c2ccccc2CCc2ccccc21 [Amitriptyline]
Dose-adjusted drug concentration Median (IQR), Pre-diet/pre-surgery [1, 3]: 283 (N/A) nmol/L | Dose-adjusted drug concentration Median (IQR), Post-surgery [1, 4]: 218 (N/A) nmol/L | Dose-adjusted drug concentration Median (IQR), post-diet [1, 5]: 279 (N/A) nmol/L | Dose-adjusted drug concentration Median (IQR), pre-diet [1, 6]: 283 (N/A) nmol/L

CN(C)CCCC1(c2ccc(F)cc2)OCc2cc(C#N)ccc21 (stereo not shown) [Citalopram]
Concentration, Post-surgery ([1]; Case 1, GBP, day +252, drug dose 10 mg): 69 nM | Concentration, Post-surgery ([1]; Case 1, GBP, day +374, drug dose 20 mg): 158 nM | Concentration, Baseline ([1]; Case 1, GBP, drug dose 10 mg): 137 nM | Concentration, Post-surgery ([1]; Case 2, GBP, day +178, drug dose 10 mg): 42 nM | Concentration, Post-surgery ([1]; Case 2, GBP, day +386, drug dose 20 mg): 90 nM | Concentration, Baseline ([1]; Case 2, GBP, drug dose 10 mg): 89 nM | Reduction of dose-adjusted concentration on the last day of sampling [1]: 19%

CNCC[C@H](Oc1cccc2ccccc12)c1cccs1 [Duloxetine]
Course of dose-adjusted concentration after surgery [1]: continued to decrease | Change in dose-adjusted concentration over the pre-surgery low-calorie diet [1]: varied | Dose-adjusted drug concentration Median (IQR), Pre-diet/pre-surgery ([1]; human, in vivo): 127 (96–203) nmol/L | Dose-adjusted drug concentration Median (IQR), post-diet ([1]; human, in vivo): 105 (64–235) nmol/L | Dose-adjusted drug concentration Median (IQR), pre-diet ([1]; human, in vivo): 127 (96–203) nmol/L | concentration at 379 days after surgery (median), trough ([1]; human, in vivo): 82 nM | Reduction of dose-adjusted concentration on the last day of sampling [1]: 35% | logD [2]: 1.54

CNCCC(Oc1ccc(C(F)(F)F)cc1)c1ccccc1 (stereo not shown) [Fluoxetine]
Course of dose-adjusted concentration after surgery [1]: continued to increase also after surgery | Dose-adjusted drug concentration Median (IQR), Pre-diet/pre-surgery ([1]; human, in vivo): 221 (157–371) nmol/L | Dose-adjusted drug concentration Median (IQR), post-diet ([1]; human, in vivo): 263 (182–333) nmol/L | Dose-adjusted drug concentration Median (IQR), pre-diet ([1]; human, in vivo): 259 (147–379) nmol/L | concentration at 379 days after surgery (median), trough ([1]; human, in vivo): 294 nM

NCC1(CC(=O)O)CCCCC1 [Gabapentin]
Dose-adjusted drug concentration Median (IQR), Pre-diet/pre-surgery [1, 7]: 34 (N/A) µmol/L | Dose-adjusted drug concentration Median (IQR), Post-surgery [1, 8]: 35 (N/A) µmol/L | Dose-adjusted drug concentration Median (IQR), post-diet [1, 9]: 43 (N/A) µmol/L | Dose-adjusted drug concentration Median (IQR), pre-diet [1, 10]: 28 (N/A) µmol/L | Change in dose-adjusted concentration over the pre-surgery low-calorie diet [1]: increased

C[C@H]1NC(C)(C)CO[C@]1(O)c1cccc(Cl)c1 [Hydroxybupropion]
Dose-adjusted drug concentration Median (IQR), Pre-diet/pre-surgery [1, 3]: 3,997 (N/A) nmol/L | Dose-adjusted drug concentration Median (IQR), Post-surgery [1, 4]: 3,298 (N/A) nmol/L | Dose-adjusted drug concentration Median (IQR), post-diet [1, 5]: 3,067 (N/A) nmol/L | Dose-adjusted drug concentration Median (IQR), pre-diet [1, 6]: 2,732 (N/A) nmol/L

Nc1nnc(-c2cccc(Cl)c2Cl)c(N)n1 [Lamotrigine]
Dose-adjusted drug concentration Median (IQR), Pre-diet/pre-surgery [1, 7]: 17 (15–23) µmol/L | Dose-adjusted drug concentration Median (IQR), post-diet [1, 9]: 23 (19–29) µmol/L | Dose-adjusted drug concentration Median (IQR), pre-diet [1, 10]: 17 (15–25) µmol/L | Change in dose-adjusted concentration over the pre-surgery low-calorie diet [1]: increased | concentration at 379 days after surgery (median), trough ([1]; human, oral, Table 2A, antiepileptics, trough serum, adjusted for dose in DDDs, last observation carried forward, median 379 days after surgery, read-out: Dose-adjusted drug concentration Median (IQR), Post-surgery): 18000 nM

CN1CCN2c3ncccc3Cc3ccccc3C2C1 (stereo not shown) [Mirtazapine]
Concentration, Post-surgery ([1]; Case 3, GBP, day +68, drug dose 15 mg): 30 nM | Concentration, Post-surgery ([1]; Case 3, GBP, day +368, drug dose 30 mg): 203 nM | Concentration, Baseline ([1]; Case 3, GBP, drug dose 15 mg): 96 nM | Concentration, Post-surgery ([1]; Case 4, Sleeve, day 213, drug dose 30 mg): 87 nM | Concentration, Post-surgery ([1]; Case 4, Sleeve, day 393, drug dose 45 mg): 119 nM | Concentration, Baseline ([1]; Case 4, Sleeve, drug dose 30 mg): 140 nM | Change in dose-adjusted concentration over the pre-surgery low-calorie diet [1]: decreased | Dose-adjusted drug concentration Median (IQR), Pre-diet/pre-surgery ([1]; human, in vivo): 148 (131–170) nmol/L | Dose-adjusted drug concentration Median (IQR), post-diet ([1]; human, in vivo): 76 (50–102) nmol/L | Dose-adjusted drug concentration Median (IQR), pre-diet ([1]; human, in vivo): 138 (120–157) nmol/L | concentration at 379 days after surgery (median), trough ([1]; human, in vivo): 88 nM | Reduction of dose-adjusted concentration on the last day of sampling [1]: 41%

Cc1cc2c(s1)Nc1ccccc1N=C2N1CCN(C)CC1 [Olanzapine]
Dose-adjusted drug concentration Median (IQR), Pre-diet/pre-surgery ([1]; human, in vivo): 113 (N/A) nmol/L

Fc1ccc([C@@H]2CCNC[C@H]2COc2ccc3c(c2)OCO3)cc1 [Paroxetine]
Dose-adjusted drug concentration Median (IQR), Pre-diet/pre-surgery ([1]; human, in vivo): 22 (N/A) nmol/L | Dose-adjusted drug concentration Median (IQR), post-diet ([1]; human, in vivo): 69 (N/A) nmol/L | Dose-adjusted drug concentration Median (IQR), pre-diet ([1]; human, in vivo): 22 (N/A) nmol/L | Dose-adjusted drug concentration Median (IQR), Post-surgery [1, 11]: 167 (N/A) nmol/L

OCCOCCN1CCN(C2=Nc3ccccc3Sc3ccccc32)CC1 [Quetiapine]
Change in dose-adjusted concentration over the pre-surgery low-calorie diet [1]: decreased | Dose-adjusted drug concentration Median (IQR), Pre-diet/pre-surgery ([1]; human, in vivo): 848 (N/A) nmol/L | Dose-adjusted drug concentration Median (IQR), post-diet ([1]; human, in vivo): 260 (N/A) nmol/L | Dose-adjusted drug concentration Median (IQR), pre-diet ([1]; human, in vivo): 848 (N/A) nmol/L | Dose-adjusted drug concentration Median (IQR), Post-surgery [1, 11]: 239 (N/A) nmol/L

CN[C@H]1CC[C@@H](c2ccc(Cl)c(Cl)c2)c2ccccc21 [Sertraline]
Concentration, Post-surgery ([1]; Case 3, GBP, day +68, drug dose 200 mg): 66 nM | Concentration, Post-surgery ([1]; Case 3, GBP, day +368, drug dose 200 mg): 78 nM | Concentration, Baseline ([1]; Case 3, GBP, drug dose 200 mg): 130 nM | Change in dose-adjusted concentration over the pre-surgery low-calorie diet [1]: decreased | Dose-adjusted drug concentration Median (IQR), Pre-diet/pre-surgery ([1]; human, in vivo): 51 (27–84) nmol/L | Dose-adjusted drug concentration Median (IQR), post-diet ([1]; human, in vivo): 39 (23–53) nmol/L | Dose-adjusted drug concentration Median (IQR), pre-diet ([1]; human, in vivo): 66 (43–87) nmol/L | concentration at 379 days after surgery (median), trough ([1]; human, in vivo): 25 nM | Reduction of dose-adjusted concentration on the last day of sampling [1]: 51%

CC1(C)O[C@@H]2[C@@H](CO[C@@]3(COS(N)(=O)=O)OC(C)(C)O[C@@H]23)O1 [Topiramate]
Dose-adjusted drug concentration Median (IQR), Pre-diet/pre-surgery [1, 7]: 33 (N/A) µmol/L | Dose-adjusted drug concentration Median (IQR), Post-surgery [1, 8]: 37 (N/A) µmol/L | Dose-adjusted drug concentration Median (IQR), post-diet [1, 9]: 31 (N/A) µmol/L | Dose-adjusted drug concentration Median (IQR), pre-diet [1, 10]: 39 (N/A) µmol/L

CCCC(CCC)C(=O)O [Valproic acid]
Dose-adjusted drug concentration Median (IQR), Pre-diet/pre-surgery [1, 7]: 533 (N/A) µmol/L | Dose-adjusted drug concentration Median (IQR), Post-surgery [1, 8]: 529 (N/A) µmol/L | Dose-adjusted drug concentration Median (IQR), post-diet [1, 9]: 759 (N/A) µmol/L | Dose-adjusted drug concentration Median (IQR), pre-diet [1, 10]: 737 (N/A) µmol/L

COc1ccc(C(CN(C)C)C2(O)CCCCC2)cc1 (stereo not shown) [Venlafaxine]
Dose-adjusted drug concentration Median (IQR), Pre-diet/pre-surgery [1, 3]: 173 (88–443) nmol/L | Dose-adjusted drug concentration Median (IQR), post-diet [1, 5]: 132 (87–215) nmol/L | Dose-adjusted drug concentration Median (IQR), pre-diet [1, 6]: 172 (79–399) nmol/L | concentration at 379 days after surgery (median), trough ([1]; human, oral, Table 2A, trough serum, adjusted for dose in DDDs, last observation carried forward, median 379 days after surgery, read-out: Dose-adjusted drug concentration Median (IQR), Post-surgery): 168 nM

NCCC(Oc1ccc(C(F)(F)F)cc1)c1ccccc1 (stereo not shown) [norfluoxetine]
Course of dose-adjusted concentration after surgery [1]: continued to increase also after surgery
